Experimental findings from patent publication US20140179726A1, “GUT MICROFLORA AS BIOMARKERS FOR THE PROGNOSIS OF CIRRHOSIS AND BRAIN DYSFUNCTION” (priority 2011, published 2014) are described below.

The test system of this test is cirrhotic patients with HE. As to the kind of experiment: Cognitive performance, HE patients on rifaximin vs only on lactulose (Example 2). The test is classed as in vivo, human. An excerpt: Patients with cirrhosis with or without HE were included for a one-time visit. We excluded patients with a current infection (defined by elevated white blood cell (WBC) count, clinical suspicion or fever), variceal bleeding within the last 4 weeks, on gut-absorbable antibiotics, or had alcohol or illicit drug intake within 3 months (checked by drug and alcohol screens). […] Patients in the “HE” group had suffered at least one HE episode within the last 3 months and were currently controlled on lactulose alone or lactulose with rifaximin.
During the visit, the subjects underwent a physical examination and measurement of body mass index (BMI), detailed analysis of medical records including current medications, a detailed dietary recall and collection of stool and blood samples. All subjects underwent a mini-mental status exam and only those scoring above 25 were included in the full study (14). Subsequently a recommended cognitive battery consisting of the following tests was administered; (a) Psychometric hepatic encephalopathy score (PHES), (b) block design test (subjects are required to replicate designs with given blocks in a timed manner) and (c) Inhibitory control test [ICT: Subjects are instructed to respond to alternating presentations of X and Y on the screen (targets) while inhibiting response when X and Y are not alternating (lures)] (5, 41). The PHES consists of number connection test-A/B (subjects are asked to “join the dots” between numbers or numbers and alphabets in a timed fashion), digit symbol (subjects are required to copy corresponding figures from a given list within 2 minutes), line drawing (time) and (errors): subjects are required to trace a line between two parallel lines and balance between speed and accuracy. Time required and the number of times the subject's line strays beyond the marked lines (errors) are recorded] and serial dotting (subjects are asked to dot the center of a group of blank circles)]. The PHES is a validated battery for cognitive dysfunction in cirrhosis and tests for psychomotor speed, visuo-motor coordination, attention and set-shifting(32). Block design tests for visuo-motor coordination. A high score on block, digit symbol and ICT targets and a low score on the rest indicate good performance.
Statistical analysis: Cirrhotics with HE were compared to those without HE with respect to BMI, inflammatory markers, cognitive performance and microbiome constituents. Unpaired t-tests were used to compare demographics, cognitive tests and inflammatory markers. Since the microbiome constituents tend to be sparse and non-parametrically distributed, we used Metastats to compare microbiome between stool and mucosa of patients with and without HE (42). Metastats performs statistical analysis (to investigate metagenomic differences) along with biomarker discovery (to evaluate specific features underlying these differences) based on repeated t statistics and Fisher's tests on random permutations (34). We also performed Metastats analysis between the mucosal microbiome compared to the stool microbiome in patients with HE and without HE and those in HE on or not on rifaximin. Principal Component Analysis (PCO) on the abundance tables and weighted and unweighted UNIFRAC analysis using the QIIME pipeline were also performed (22, 25). Subsequently, we analyzed the correlations between MELD score, BMI, inflammatory markers, cognitive tests and microbiome constituents using a correlation network analysis obtained through a customized statistical script in R (7) using a P-value cutoff of <0.05 and an R value >0.5 to identify the most significant relationships (4, 16).

Regarding `OC[C@H]1O[C@@H](O[C@@H]2[C@@H](CO)OC(O)(CO)[C@H]2O)[C@H](O)[C@@H](O)[C@H]1O` (mixture of isomers) [lactulose], for the setting “high = good”, the block design is recorded as 19.8 score, the digit symbol is on record as 38 score and the targets worked out at 90%. For the setting “high = poor”, the line tracing errors was determined as 44.9, the line tracing time is 127.3, the lures is on record as 16.9 responses and the “number connection-A” value was 52.25 s. Under “high = poor”, the “number connection-B” value came out at 145.8 s and the serial dotting is 84.0 s.
